The values below come from the Kinase Knowledgebase extract (Sharma et al. 2016).

As usually defined, the EC50 is the concentration that produces a half-maximal response. A word on the IC50: it is the point on the concentration scale where inhibition reaches its midpoint.

In assay [1] the target is PIK3CD (Human) (UniProt O00329). The assay can be described thus: Assessment of Elastase Exocytosis From Neutrophils.
A further assay deals with PIK3CB (Human) (UniProt P42338). The assay can be described thus: Inhibition of PIK3CB Kinase Activity.
Chain of PIK3CB (Human) (P42338 whole entry, looked up): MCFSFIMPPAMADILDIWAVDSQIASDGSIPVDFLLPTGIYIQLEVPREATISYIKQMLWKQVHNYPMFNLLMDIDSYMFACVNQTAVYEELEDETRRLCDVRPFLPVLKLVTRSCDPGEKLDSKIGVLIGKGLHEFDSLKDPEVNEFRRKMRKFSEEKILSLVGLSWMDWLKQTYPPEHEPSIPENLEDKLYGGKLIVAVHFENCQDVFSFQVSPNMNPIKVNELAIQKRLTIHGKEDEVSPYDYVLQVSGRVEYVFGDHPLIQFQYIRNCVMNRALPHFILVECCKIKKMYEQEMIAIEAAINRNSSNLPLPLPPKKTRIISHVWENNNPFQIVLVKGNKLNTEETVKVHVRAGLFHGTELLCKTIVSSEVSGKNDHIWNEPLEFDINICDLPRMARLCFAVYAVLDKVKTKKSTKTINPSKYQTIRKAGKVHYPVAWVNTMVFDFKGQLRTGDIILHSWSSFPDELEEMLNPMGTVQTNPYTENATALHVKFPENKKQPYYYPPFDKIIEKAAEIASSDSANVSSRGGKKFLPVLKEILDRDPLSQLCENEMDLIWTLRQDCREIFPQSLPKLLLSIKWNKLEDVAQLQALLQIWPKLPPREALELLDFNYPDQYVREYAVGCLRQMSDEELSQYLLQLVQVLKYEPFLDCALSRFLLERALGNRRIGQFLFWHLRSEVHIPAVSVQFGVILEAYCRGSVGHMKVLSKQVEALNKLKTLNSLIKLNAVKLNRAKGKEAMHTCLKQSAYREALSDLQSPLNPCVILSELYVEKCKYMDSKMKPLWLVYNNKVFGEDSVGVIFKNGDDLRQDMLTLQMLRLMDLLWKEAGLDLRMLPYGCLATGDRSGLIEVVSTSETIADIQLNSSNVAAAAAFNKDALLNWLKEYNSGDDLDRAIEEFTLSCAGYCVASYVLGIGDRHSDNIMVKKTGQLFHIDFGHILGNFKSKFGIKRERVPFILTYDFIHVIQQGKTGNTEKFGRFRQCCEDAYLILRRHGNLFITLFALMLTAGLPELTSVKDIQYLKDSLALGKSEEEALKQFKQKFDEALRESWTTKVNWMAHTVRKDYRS
The target in the next assay is PIK3CG (human) (UniProt P48736). The assay is described as follows: Inhibition of PIK3CG Kinase Activity.
Chain of PIK3CG (human) (P48736 whole entry, looked up): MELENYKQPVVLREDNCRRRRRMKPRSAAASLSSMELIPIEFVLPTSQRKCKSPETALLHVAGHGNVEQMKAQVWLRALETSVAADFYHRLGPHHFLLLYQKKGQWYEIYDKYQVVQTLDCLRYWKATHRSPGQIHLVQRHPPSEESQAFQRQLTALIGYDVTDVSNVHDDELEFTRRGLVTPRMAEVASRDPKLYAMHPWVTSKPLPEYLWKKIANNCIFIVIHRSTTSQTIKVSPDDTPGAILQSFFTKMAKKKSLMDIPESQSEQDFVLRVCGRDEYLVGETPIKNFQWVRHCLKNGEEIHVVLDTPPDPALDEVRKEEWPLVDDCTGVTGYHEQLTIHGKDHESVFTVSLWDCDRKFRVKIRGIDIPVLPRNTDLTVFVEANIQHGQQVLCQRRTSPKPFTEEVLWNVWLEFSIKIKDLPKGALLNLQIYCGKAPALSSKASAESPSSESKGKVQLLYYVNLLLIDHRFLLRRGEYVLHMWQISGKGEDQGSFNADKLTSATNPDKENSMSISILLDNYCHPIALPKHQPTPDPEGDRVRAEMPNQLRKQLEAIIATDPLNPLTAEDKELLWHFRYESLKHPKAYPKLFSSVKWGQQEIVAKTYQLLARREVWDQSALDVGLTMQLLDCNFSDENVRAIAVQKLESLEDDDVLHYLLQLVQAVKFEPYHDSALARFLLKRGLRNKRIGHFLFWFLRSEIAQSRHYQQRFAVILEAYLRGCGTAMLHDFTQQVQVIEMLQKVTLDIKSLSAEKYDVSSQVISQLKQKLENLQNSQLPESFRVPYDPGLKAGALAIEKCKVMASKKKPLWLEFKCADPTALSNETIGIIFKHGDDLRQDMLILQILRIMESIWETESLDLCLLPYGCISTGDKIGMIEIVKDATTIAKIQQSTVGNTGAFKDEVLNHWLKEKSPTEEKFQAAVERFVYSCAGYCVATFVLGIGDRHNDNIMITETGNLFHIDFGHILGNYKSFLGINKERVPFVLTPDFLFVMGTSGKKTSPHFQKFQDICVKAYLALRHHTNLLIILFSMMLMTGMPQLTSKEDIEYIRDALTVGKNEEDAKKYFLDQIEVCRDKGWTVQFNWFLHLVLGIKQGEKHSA
The next assay addresses PIK3CA (human) (UniProt P42336). The assay can be described thus: Inhibition of PIK3CA Kinase Activity.
The target in assay [2] is PIK3CD (Human) (UniProt O00329). The assay is described as follows: Assessment of Human B Lymphocyte Function. The following applies: b cells.

Chain of PIK3CD (Human) (O00329 whole entry, looked up): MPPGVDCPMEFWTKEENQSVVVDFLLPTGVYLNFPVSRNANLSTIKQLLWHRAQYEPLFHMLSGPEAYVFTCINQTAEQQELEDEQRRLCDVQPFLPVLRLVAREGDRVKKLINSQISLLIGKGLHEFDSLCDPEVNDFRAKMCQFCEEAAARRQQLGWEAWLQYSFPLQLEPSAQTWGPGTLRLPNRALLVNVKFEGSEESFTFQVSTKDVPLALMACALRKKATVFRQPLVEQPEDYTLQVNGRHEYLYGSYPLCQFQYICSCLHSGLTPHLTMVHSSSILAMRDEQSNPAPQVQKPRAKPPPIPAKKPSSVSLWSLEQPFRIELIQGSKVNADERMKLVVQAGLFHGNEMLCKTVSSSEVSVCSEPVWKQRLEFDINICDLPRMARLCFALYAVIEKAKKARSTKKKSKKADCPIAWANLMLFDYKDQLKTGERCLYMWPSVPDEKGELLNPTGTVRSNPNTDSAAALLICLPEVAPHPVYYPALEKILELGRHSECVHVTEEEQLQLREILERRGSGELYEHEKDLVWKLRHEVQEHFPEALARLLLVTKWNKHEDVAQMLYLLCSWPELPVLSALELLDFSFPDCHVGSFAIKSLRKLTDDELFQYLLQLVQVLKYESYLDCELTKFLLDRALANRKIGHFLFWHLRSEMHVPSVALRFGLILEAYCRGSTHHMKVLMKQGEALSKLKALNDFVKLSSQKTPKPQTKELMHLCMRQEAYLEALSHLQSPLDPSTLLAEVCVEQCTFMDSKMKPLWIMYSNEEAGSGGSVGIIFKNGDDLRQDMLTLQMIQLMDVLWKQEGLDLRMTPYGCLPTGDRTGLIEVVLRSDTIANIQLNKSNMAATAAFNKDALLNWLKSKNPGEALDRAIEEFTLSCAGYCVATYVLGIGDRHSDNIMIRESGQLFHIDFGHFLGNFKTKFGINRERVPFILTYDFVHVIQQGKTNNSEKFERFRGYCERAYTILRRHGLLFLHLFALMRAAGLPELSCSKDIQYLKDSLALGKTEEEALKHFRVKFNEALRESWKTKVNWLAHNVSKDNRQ
Chain of PIK3CA (human) (P42336 whole entry, looked up): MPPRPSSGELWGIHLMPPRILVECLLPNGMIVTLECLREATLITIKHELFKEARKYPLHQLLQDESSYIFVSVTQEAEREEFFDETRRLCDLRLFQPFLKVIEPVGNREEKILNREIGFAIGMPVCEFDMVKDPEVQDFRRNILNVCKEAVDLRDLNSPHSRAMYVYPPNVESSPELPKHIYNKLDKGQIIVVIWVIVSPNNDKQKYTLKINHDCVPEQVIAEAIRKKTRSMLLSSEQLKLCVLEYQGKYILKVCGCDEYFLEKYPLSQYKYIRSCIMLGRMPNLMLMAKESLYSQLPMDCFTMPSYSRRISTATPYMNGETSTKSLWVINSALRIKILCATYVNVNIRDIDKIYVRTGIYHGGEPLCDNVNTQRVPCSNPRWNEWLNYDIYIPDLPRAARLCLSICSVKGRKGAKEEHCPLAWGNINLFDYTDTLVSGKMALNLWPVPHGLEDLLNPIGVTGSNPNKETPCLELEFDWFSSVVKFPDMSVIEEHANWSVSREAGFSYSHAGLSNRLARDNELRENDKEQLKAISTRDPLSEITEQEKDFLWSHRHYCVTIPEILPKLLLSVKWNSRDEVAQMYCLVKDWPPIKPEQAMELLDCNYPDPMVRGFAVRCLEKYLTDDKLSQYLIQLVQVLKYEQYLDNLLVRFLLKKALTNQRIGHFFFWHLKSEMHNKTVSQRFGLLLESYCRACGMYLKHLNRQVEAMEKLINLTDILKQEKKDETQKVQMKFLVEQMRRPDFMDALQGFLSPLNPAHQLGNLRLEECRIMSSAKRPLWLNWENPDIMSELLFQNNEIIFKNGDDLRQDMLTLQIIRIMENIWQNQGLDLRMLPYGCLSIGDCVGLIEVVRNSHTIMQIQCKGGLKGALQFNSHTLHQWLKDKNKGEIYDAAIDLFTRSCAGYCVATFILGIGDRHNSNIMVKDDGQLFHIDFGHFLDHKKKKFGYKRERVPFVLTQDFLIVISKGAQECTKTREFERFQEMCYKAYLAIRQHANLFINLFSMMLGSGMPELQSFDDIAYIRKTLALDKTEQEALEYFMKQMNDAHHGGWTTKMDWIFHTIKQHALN

On to `CCC(Nc1ncnc2[nH]cnc12)c1nc2cccc(C)c2c(=O)n1-c1cc(F)cc(F)c1` (centres undefined), for which the EC50 at PIK3CD (Human) [1] came to 584 nM. Also, the IC50 on PIK3CB (Human) is 2440 nM; against PIK3CG (human), 1610 nM; against PIK3CA (human), 18700 nM.
On to `CCC(Nc1ncnc2[nH]cnc12)c1nc2ccccc2c(=O)n1-c1ccccc1` (centres undefined), for which the values for the EC50 on PIK3CD (Human) [1] and on PIK3CD (Human) [2] were 84 nM and 4.6 nM, respectively. The half-inhibitory concentration (IC50) against PIK3CB (Human) stood at 1180 nM; against PIK3CG (human), 1060 nM; against PIK3CA (human) it was 9730 nM.
For `CC[C@H](Nc1ncnc2[nH]cnc12)c1nc2cccc(Cl)c2c(=O)n1-c1cc(F)cc(F)c1` the same measures were 382 nM, 1.6 nM, 936 nM, 804 nM and 7940 nM.
For `CCC(Nc1ncnc2[nH]cnc12)c1nc2cccc(Cl)c2c(=O)n1-c1c(F)cccc1F` (centres undefined), in that order: 298 nM, 30.7 nM, 3240 nM, 1710 nM and 11200 nM.
